Data from patent US20190062277A1, “FARNESOID X RECEPTOR AGONISTS AND USES THEREOF” (Metacrine, Inc., priority 2015, published 2019).

Experiments:
FXR [1] = molecular target: T1, FXR (Homo sapiens, UniProt Q96RI1); test: In Vitro FXR Assay (PGL3), luciferase reporter in transfected CV-1 cells; format: cell-based; set-up: plasmids XPD90Gal pCMXhFXRfl, pCMXhRXRfl+PGL3-ECRE*6-luc+CMX-YFP; expressed in transfected cells; host or cells: CV-1 cells; details: CV-1 cells transfected with hFXR, hRXR, PGL3-ECRE*6-luc; 18 hrs incubation; luminescence
T1 sequence (Q96RI1 1-486): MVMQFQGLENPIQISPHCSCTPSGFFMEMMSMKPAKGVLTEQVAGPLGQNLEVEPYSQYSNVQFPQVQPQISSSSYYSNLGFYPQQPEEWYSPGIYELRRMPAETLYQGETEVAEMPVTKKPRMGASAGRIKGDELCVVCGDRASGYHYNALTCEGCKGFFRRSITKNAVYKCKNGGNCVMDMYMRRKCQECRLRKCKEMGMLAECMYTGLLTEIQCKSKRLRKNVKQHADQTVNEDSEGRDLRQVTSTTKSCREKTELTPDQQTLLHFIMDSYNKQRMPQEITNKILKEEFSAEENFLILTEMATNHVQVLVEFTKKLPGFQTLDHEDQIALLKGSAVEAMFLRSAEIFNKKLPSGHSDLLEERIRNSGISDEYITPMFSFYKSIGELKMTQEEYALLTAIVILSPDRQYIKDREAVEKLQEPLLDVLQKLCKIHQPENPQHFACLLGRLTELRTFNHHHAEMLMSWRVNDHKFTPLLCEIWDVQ
T1 sequence (P19793 1-462 partner): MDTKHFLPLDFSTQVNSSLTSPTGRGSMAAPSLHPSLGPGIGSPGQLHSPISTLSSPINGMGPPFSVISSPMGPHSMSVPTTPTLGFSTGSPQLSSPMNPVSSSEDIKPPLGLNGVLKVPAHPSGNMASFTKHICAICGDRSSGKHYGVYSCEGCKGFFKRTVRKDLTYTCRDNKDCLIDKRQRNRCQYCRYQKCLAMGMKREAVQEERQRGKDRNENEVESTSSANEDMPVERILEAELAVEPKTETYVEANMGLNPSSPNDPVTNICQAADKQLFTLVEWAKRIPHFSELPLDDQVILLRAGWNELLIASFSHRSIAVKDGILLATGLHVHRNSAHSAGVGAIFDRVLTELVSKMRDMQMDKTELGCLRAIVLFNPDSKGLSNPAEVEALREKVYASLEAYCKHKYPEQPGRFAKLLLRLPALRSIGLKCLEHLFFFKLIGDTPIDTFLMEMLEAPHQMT
Description: Example B-1: In Vitro FXR Assay (PGL3)
CV-1 cells were seeded at a density of 2,000,000 cells in a T175 flask with DMEM+10% charcoal double-stripped FBS and incubated at 37° C. in a 5% CO2 for 18 h (0/N).
After 18 h of incubation, the medium in the T175 flask was changed with fresh DMEM+10% charcoal super-stripped serum.
To prepare the transfection reaction mixture, the transfection reagent (X-tremeGENE HP from Roche, Cat #06 366 236 001) was added in to a 1.5 mL microcentrifuge tube labelled “A” at a ratio of 1:3 (DNA in μg: transfection reagent in μL). OptiMEM medium (Life Technologies, Cat #31985-062) was added accordingly to provide a total volume of 1 mL. The transfection reaction mixture was then briefly vortexed and incubated at room temperature for 5 minutes.
In a separate 1.5 mL microcentrifuge tube labelled “B”, 100 μL OptiMEM and plasmids XPD90Gal pCMXhFXRfl, pCMXhRXRfl+PGL3-ECRE*6-luc+CMX-YFP in the ratio 2 μg: 2 μg:18 μg:3 μg were added. This microcentrifuge tube “B” was then briefly vortexed and incubated at room temperature for 5 minutes.
The total volume in tube labelled “A” was then transferred in to tube labelled “B.” The mixture was then briefly vortexed and the transfection:DNA complex was then incubated for about 15-20 minutes at room temperature.
Following incubation, the transfection reagent/DNA mixture complex was then added to cells in the T175 flask and the cells were incubated at […] (0/N) at 37° C. in 5% CO2.
In a 96 well plate, a half logarithmic serial dilution was prepared. OptiMEM was used as the diluent. Using any of one of the compounds described herein, a compound stock solution of 10 mM was prepared. An initial 1:100 dilution was made into the first well for a final concentration of 100 μM. The final concentrations in the 96-well plate was prepared by using a multichannel pipette to transfer 5 μL of the diluted compound to 384-well plate in quadruplicate.
Cells in T175 flask were trypsinized and cells were resuspending in 40 mL phenol red free DMEM+10% charcoal super-stripped FBS. Typically, one T175 flask was sufficient to seed two 384 well plates. CV-1 cells were seeded at 45 μL cell suspension/well using a multi-channel pipet or a 384 multidrop dispenser. The cells were then incubated for 18 hrs, overnight.
After removing the plates from the incubator, the medium was flicked out of plate and 384 well plate was turned upside down onto paper towel. The remaining medium was gently tapped out. 15 μL lysis buffer was then added to each well using a multichannel pipet or a 384 well multi-drop dispenser. After incubation for 10 minutes at room temperature on shaker, 30 μL Luciferase buffer was added to each well. Luminescence counts were taken immediately using the Perkin Elmer Envision.
The ability of the compounds disclosed herein to […] FXR activity was quantified and the respective EC50 value was determined. Fex=fexaramine.

FXR [2] = molecular target: T1, FXR; test: In Vitro FXR Assay (TK), luciferase reporter in transfected CV-1 cells; format: cell-based; set-up: expressed in transfected cells; host or cells: CV-1 cells; details: CV-1 cells transfected with hFXR, hRXR, TK-ECRE-luc; 18 hrs incubation; luminescence; maximum efficacy <25% of Fexaramine control also classified '+'
Description: Example B-2: In Vitro FXR Assay (TK)
CV-1 cells were seeded at a density of 2,000,000 cells in a T175 flask with DMEM+10% charcoal double-stripped FBS and incubated at 37° C. in 5% CO2 for 18 h (0/N).
After 18 h of incubation, the medium in the T175 flask was changed with fresh DMEM+10% charcoal super-stripped serum. In a polypropylene tube, 2500 μL OptiMEM (Life Technologies, Cat #31985-062) was combined with expression plasmids for hFXR, hRXR, TK-ECRE-luc and pCMX-YFP. The tube was then briefly vortexed and incubated at room temperature for 5 minutes. Transfection reagent (X-tremeGENE HP from Roche, Cat #06 366 236 001) was added to the OptiMEM/plasmid mixture vortexed and incubated at room temperature for 20 minutes. Following incubation, the transfection reagent/DNA mixture complex was added to cells in the T175 flask and the cells were incubated at 37° C. in 5% CO2 for 18 h (O/N).
Compounds were serially diluted in DMSO and added to transfected CV-1 cells. The cells were then incubated for 18 hrs. The next day cells were lysed and examined for luminescence.

| SMILES | Cmpd/Fex (ratio of the EC50 for the test compound relative to the EC50 of the Fexaramine control) (FXR [1]) | EC50 (FXR [2]) |
| --- | --- | --- |
| COC(=O)/C=C/c1cccc(N(Cc2ccc(-c3ccc(N(C)C)cc3)nc2)C(=O)C2CCCCC2)c1 [Compound 1, (E)-Methyl 3-(3-(N-((6-(4-(dimethylamino)phenyl)pyridin-3-yl)methyl)cyclohexanecarboxamido)phenyl)acrylate] | +++ (‘+++’ means Cmpd/Fex <10) | 1000 to 10000 nM |
| COC(=O)/C=C/c1cccc(N(CC2CCN(c3ccc(N(C)C)cc3)CC2)C(=O)C2CCCCC2)c1 [Compound 2, (E)-Methyl 3-(3-(N-((1-(4-(dimethylamino)phenyl)piperidin-4-yl)methyl)cyclohexanecarboxamido)phenyl)acrylate] | +++ (‘+++’ means Cmpd/Fex <10) | ≤ 1000 nM |
| COC(=O)/C=C/c1cccc(N(C[C@@H]2CCN(c3ccc(N(C)C)cc3)C2)C(=O)C2CCCCC2)c1 [Compound 3, (R,E)-Methyl 3-(3-(N-((1-(4-(dimethylamino)phenyl)pyrrolidin-3-yl)methyl)cyclohexanecarboxamido)phenyl) acrylate] | + (‘+’ means Cmpd/Fex >100) | ≥ 10000 nM |
| COC(=O)/C=C/c1cccc(N(C[C@H]2CCN(c3ccc(N(C)C)cc3)C2)C(=O)C2CCCCC2)c1 [Compound 4, (S,E)-Methyl 3-(3-(N-((1-(4-(dimethylamino)phenyl)pyrrolidin-3-yl)methyl)cyclohexanecarboxamido)phenyl) acrylate] | ++ (‘++’ means Cmpd/Fex >10 & <100) | 1000 to 10000 nM |
| COC(=O)/C=C/c1cccc(N(CC2CN(c3ccc(N(C)C)cc3)C2)C(=O)C2CCCCC2)c1 [Compound 4.1, (E)-Methyl 3-(3-(N-((1-(4-(dimethylamino)phenyl)azetidin-3-yl)methyl)cyclohexanecarboxamido)phenyl) acrylate] |  | ≥ 10000 nM |
| COC(=O)/C=C/c1cccc(N(CC2CCN(c3ccc(C)cc3)CC2)C(=O)C2CCCCC2)c1 [Compound 5, (E)-Methyl 3-(3-(N-((1-(p-tolyl)piperidin-4-yl)methyl)cyclohexanecarboxamido)phenyl)acrylate] | +++ (‘+++’ means Cmpd/Fex <10) | ≤ 1000 nM |
| CN(C)c1ccc(N2CCC(CN(C(=O)C3CCCCC3)c3cccc(/C=C/C(=O)O)c3)CC2)cc1 [Compound 6, (E)-3-(3-(N-((1-(4-(Dimethylamino)phenyl)piperidin-4-yl)methyl)cyclohexanecarboxamido)phenyl)acrylic acid] | + (‘+’ means Cmpd/Fex >100) | ≥ 10000 nM |
| COc1ccc([C@H]2CC[C@H](CN(C(=O)C3CCCCC3)c3cccc(/C=C/C(=O)O)c3)CC2)cc1C [Compound 6.1, trans-(E)-3-(3-(N-((4-(4-Methoxy-3-methylphenyl)cyclohexyl)methyl)cyclohexanecarboxamido)phenyl)acrylic acid] |  | 1000 to 10000 nM |
| COC(=O)/C=C/c1cccc(N(C[C@H]2CC[C@H](c3ccc(OC)c(C)c3)CC2)C(=O)C2CCCCC2)c1 [Compound 8, trans-(E)-Methyl 3-(3-(N-((4-(4-methoxy-3-methylphenyl)cyclohexyl)methyl)cyclohexanecarboxamido)phenyl)acrylate] |  | ≤ 1000 nM |
| COC(=O)/C=C/c1cccc(N(C[C@H]2CC[C@H](c3ccc(OC)c(C)c3)CC2)C(=O)CC(C)(C)C)c1 [Compound 9, trans-(E)-Methyl 3-(3-(N-((4-(4-methoxy-3-methylphenyl)cyclohexyl)methyl)-3,3-dimethylbutanamido)phenyl)acrylate] |  | ≤ 1000 nM |
| COc1ccc([C@H]2CC[C@H](CN(C(=O)C3CCCCC3)c3cccc(/C=C/C(=O)OC(C)C)c3)CC2)cc1C [Compound 10, trans-(E)-Isopropyl 3-(3-(N-((4-(4-methoxy-3-methylphenyl)cyclohexyl)methyl)cyclohexanecarboxamido)phenyl)acrylate] |  | ≤ 1000 nM |
| COc1ccc([C@H]2CC[C@H](CN(C(=O)CC(C)(C)C)c3cccc(/C=C/C(=O)OC(C)C)c3)CC2)cc1C [Compound 11, trans-(E)-Isopropyl 3-(3-(N-((4-(4-methoxy-3-methylphenyl)cyclohexyl)methyl)-3,3-dimethylbutanamido)phenyl)acrylate] |  | ≤ 1000 nM |
| COC(=O)/C=C/c1cccc(N(C[C@H]2CC[C@@H](c3ccc(OC)c(C)c3)CC2)C(=O)C2CCCCC2)c1 [Compound 12, cis-(E)-Methyl 3-(3-(N-((4-(4-methoxy-3-methylphenyl)cyclohexyl)methyl)cyclohexanecarboxamido)phenyl)acrylate] |  | ≥ 10000 nM |
| COc1ccc([C@H]2CC[C@H](CN(c3cccc(/C=C/C(=O)OC(C)C)c3)C(=O)[C@H]3CC[C@H](O)CC3)CC2)cc1C [Compound 13, trans-(E)-Isopropyl 3-(3-(trans-4-hydroxy-N-((4-(4-methoxy-3-methylphenyl)cyclohexyl)methyl)cyclohexanecarboxamido)phenyl)acrylate] |  | ≤ 1000 nM |
| COC(=O)/C=C/c1cccc(N(C[C@H]2CC[C@H](c3ccc(OC)c(C)c3)CC2)C(=O)[C@H]2CC[C@H](O)CC2)c1 [Compound 14, trans-(E)-Methyl 3-(3-(trans-4-hydroxy-N-((4-(4-methoxy-3-methylphenyl)cyclohexyl)methyl)cyclohexanecarboxamido)phenyl)acrylate] |  | ≤ 1000 nM |
